Measured values taken from DBAASP.
In brackets after ≈: the same amount, converted by molar mass.

Key:
Test in all cases: ≥ marks a high value that may be exact or a test limit, other limits are often not marked, values filed in µg/mL are converted to µM
[1] = test system: Pseudomonas aeruginosa ATCC 27853
[2] = test system: Staphylococcus aureus TK784
[3] = test system: Klebsiella pneumoniae ATCC 10031
[4] = test system: Staphylococcus aureus ATCC 6538P
[5] = test system: Shigella dysenteriae ATCC 9752
[6] = test system: Escherichia coli ATCC 25922
[7] = test system: Micrococcus luteus ATCC 10240
[8] = test system: Bacillus subtilis ATCC 6633
[9] = test system: Staphylococcus epidermidis ATCC 12228
[10] = test system: Salmonella enterica subsp. enterica serovar Typhimurium ATCC 14028
[11] = test system: Bacillus subtilis IFO 3336
[12] = test system: Escherichia coli IFO 3301
[13] = test system: Streptococcus gordonii DL1
[14] = test system: Streptococcus mutans comD
[15] = test system: Streptococcus mutans UA140
[16] = test system: Streptococcus sanguinis ATCC 10556
[17] = test system: Streptococcus gordonii ATCC 10558
[18] = test system: Streptococcus salivarius K12
[19] = test system: Streptococcus mutans ATCC 104495
[20] = test system: Streptococcus mutans UA159
[21] = test system: Streptococcus mutans ATCC 25175
[22] = test system: Streptococcus sanguinis NY101
Streptococcus mutans T8 = test system: Streptococcus mutans T8
[23] = test system: Pseudomonas aeruginosa CCARM 2095
[24] = test system: Staphylococcus aureus CCARM 3543
[25] = test system: Pseudomonas aeruginosa CCARM 2109
[26] = test system: Bacillus subtilis KCTC 3068
[27] = test system: Salmonella typhimurium KCTC 1926
[28] = test system: Pseudomonas aeruginosa KCTC 1637
[29] = test system: Staphylococcus aureus KCTC 1621
[30] = test system: Escherichia coli KCTC 1682
[31] = test system: Staphylococcus epidermidis KCTC 1917
[32] = test system: Staphylococcus aureus CCARM 3001
[33] = test system: Escherichia coli ATCC 27325
[34] = test system: Saccharomyces cerevisiae ATCC 44774
[35] = test system: Staphylococcus aureus ATCC 15752
[36] = test system: Candida albicans ATCC 10231
[37] = test system: Salmonella enterica subsp. enterica serovar Enteritidis ATCC 13076
[38] = test system: Cryptococcus neoformans ATCC 34881
[39] = test system: Bacillus subtilis ATCC 62037
[40] = test system: Pseudomonas putida ATCC 17426

CC(C)C[C@H](NC(=O)[C@H](Cc1c[nH]c2ccccc12)NC(=O)[C@H](CCCCN)NC(=O)[C@H](CC(C)C)NC(=O)[C@H](CC(C)C)NC(=O)[C@H](Cc1c[nH]c2ccccc12)NC(=O)[C@H](CCCCN)NC(=O)[C@@H](N)CC(C)C)C(=O)N[C@@H](CCCCN)C(N)=O [LKWLLKWLK]
MIC [1]: 32.6 µM (≈ 40 µg/mL)
MIC [2]: 16.3 µM (≈ 20 µg/mL)
MIC [3]: 16.3 µM (≈ 20 µg/mL)
MIC [4]: 2.04 µM (≈ 2.5 µg/mL)
MIC [5]: ≥ 32.6 µM
MIC [6]: 4.07 µM (≈ 5 µg/mL)
MIC [7]: 8.15 µM (≈ 9.99 µg/mL)
MIC [8]: 4.07 µM (≈ 5 µg/mL)
MIC [9]: 4.07 µM (≈ 5 µg/mL)
MIC [10]: 32.6 µM (≈ 40 µg/mL)

NC(N)=NCCC[C@H](NC(=O)[C@H](Cc1cnc[nH]1)NC(=O)[C@H](CCCN=C(N)N)NC(=O)[C@H](Cc1cnc[nH]1)NC(=O)[C@H](CCCN=C(N)N)NC(=O)[C@H](Cc1cnc[nH]1)NC(=O)[C@H](CCCN=C(N)N)NC(=O)[C@H](Cc1cnc[nH]1)NC(=O)[C@H](CCCN=C(N)N)NC(=O)[C@@H](N)Cc1cnc[nH]1)C(=O)O [HRHRHRHRHR]
MIC [11]: 6.74 µM (≈ 10 µg/mL)
MIC [12]: 6.74 µM (≈ 10 µg/mL)

CC[C@H](C)[C@H](NC(=O)CNC(=O)[C@H](CCCCN)NC(=O)[C@H](CCCN=C(N)N)NC(=O)[C@@H](NC(=O)[C@@H](NC(=O)[C@H](CCCN=C(N)N)NC(=O)[C@H](CC(C)C)NC(=O)[C@H](CC(N)=O)NC(=O)[C@@H](N)CCCCN)[C@@H](C)CC)[C@@H](C)CC)C(=O)N[C@@H](Cc1cnc[nH]1)C(=O)N[C@H](C(=O)N[C@H](C(=O)N[C@@H](CCCCN)C(=O)N[C@@H](CCCCN)C(=O)N[C@@H](Cc1ccc(O)cc1)C(N)=O)[C@@H](C)CC)[C@@H](C)CC [KNLRIIRKGIHIIKKY]
MIC [13]: ≥ 41.3 µM
MIC [14]: 15.3 µM (≈ 30.5 µg/mL)
MIC [15]: ≥ 33.3 µM
MIC [16]: ≥ 50 µM
MIC [17]: ≥ 50 µM
MIC [18]: 16.7 µM (≈ 33.3 µg/mL)
MIC [19]: ≥ 33.3 µM
MIC [20]: 12.1 µM (≈ 24.1 µg/mL)
MIC [21]: 14.8 µM (≈ 29.5 µg/mL)
MIC [22]: ≥ 33.6 µM
MIC (Streptococcus mutans T8): 14.2 µM (≈ 28.3 µg/mL)

CC(C)C[C@H](NC(=O)[C@H](CC(C)C)NC(=O)[C@H](Cc1c[nH]c2ccccc12)NC(=O)[C@H](CCCCN)NC(=O)[C@H](CC(C)C)NC(=O)[C@H](Cc1c[nH]c2ccccc12)NC(=O)[C@H](CC(C)C)NC(=O)[C@H](CC(C)C)NC(=O)[C@H](Cc1c[nH]c2ccccc12)NC(=O)[C@H](CC(C)C)NC(=O)[C@@H](N)CCCCN)C(N)=O [KLWLLWLKWLL]
MIC [23]: ≥ 64 µM
MIC [24]: ≥ 32 µM
MIC [25]: ≥ 64 µM
MIC [26]: ≥ 32 µM
MIC [27]: ≥ 32 µM
MIC [28]: 16 µM (≈ 24.2 µg/mL)
MIC [29]: ≥ 32 µM
MIC [30]: ≥ 32 µM
MIC [31]: ≥ 32 µM
MIC [32]: ≥ 64 µM

CC(C)[C@H](NC(=O)[C@H](CCCCN)NC(=O)CNC(=O)CNC(=O)[C@H](CCC(N)=O)NC(=O)[C@H](CCCCN)NC(=O)CNC(=O)[C@H](CCCN=C(N)N)NC(=O)CN)C(=O)N[C@@H](CCCN=C(N)N)C(=O)N[C@@H](C)C(=O)N[C@@H](CCCCN)C(=O)N[C@@H](C)C(=O)N[C@@H](CCCCN)C(=O)N[C@H](C(=O)N[C@@H](CCCN=C(N)N)C(=O)N[C@@H](CO)C(=O)N[C@@H](CO)C(=O)O)[C@@H](C)O [GRGKQGGKVRAKAKTRSS]
MIC [33]: ≥ 68.4 µM
MIC [34]: ≥ 68.4 µM
MIC [35]: ≥ 68.4 µM
MIC [36]: > 68.4 µM
MIC [37]: ≥ 68.4 µM
MIC [38]: ≥ 68.4 µM
MIC [39]: ≥ 68.4 µM
MIC [21]: ≥ 68.4 µM
MIC [40]: ≥ 68.4 µM
